Measured values published in PMC9925730, “Controlled sequential in situ self-assembly and disassembly of a fluorogenic cisplatin prodrug for cancer theranostics” (Nature Communications, 2023).

Columns and labels:
[1] = molecular target: T1, ALP (Bos taurus, UniProt P19111); assay: ALP-triggered dephosphorylation and in situ self-assembly in solution (HPLC, DLS, TEM); assay type: biochemical; parameters: amount of compound in the P-CyPt solution (HPLC, Fig. 2h) / mean size by TEM (Fig. 2i) / mean size by DLS (Fig. 2i): unit not given here; conditions: for amount of compound in the P-CyPt solution (HPLC, Fig. 2h) / Pt release (ICP-OES, Fig. 2h) / mean size by DLS (Fig. 2i) / mean size by TEM (Fig. 2i): P-CyPt 10 μM, ALP 100 U/L 37 °C
T1 construct: Alkaline phosphatase from bovine; purchased Sigma-Aldrich; host or cells: bovine intestinal mucosa (tissue-derived)
Experimental: (§1) To evaluate the ALP-triggered dephosphorylation and in situ self-assembly process, a solution of P-CyPt (10 μM) in Tris buffer (1 mL) was incubated with ALP (100 U/L) at 37 °C. HPLC, DLS, and TEM analyses were performed at 0, 5, 10, 15, 20, and 30 min. To evaluate the GSH-triggered reduction and disassembly process, P-CyPt (10 μM) in Tris buffer (1 mL) was first incubated with ALP (100 U/L) at 37 °C for 30 min to allow the formation of Pt^IVNPs. The solution was then treated with 10 mM GSH at 37 °C, which was monitored by HPLC, DLS, and TEM at 10, 20, 30, 40, 50, and 60 min.

[2] = GSH-triggered reduction, disassembly of Pt^IVNPs and CDDP release in solution (HPLC, DLS, TEM, ICP-OES); parameters: amount of compound in the P-CyPt solution (HPLC, Fig. 2h) / mean size by TEM (Fig. 2i) / mean size by DLS (Fig. 2i): unit not given here; conditions: for amount of compound in the P-CyPt solution (HPLC, Fig. 2h) / Pt release (ICP-OES, Fig. 2h) / mean size by DLS (Fig. 2i) / mean size by TEM (Fig. 2i): P-CyPt 10 μM
Experimental: as §1
(a) 5 mM GSH 10 mM GSH(b ) (c)
60 min 60 min CyPt Cy- CO O H
Time (min) Time (min) Time (min)
Supplementary Figure 9. HPLC traces of the time-dependent conversion of PtIVNPs (CyPt) into Cy-COOH under incubation with 5 mM (a) or 10 mM GSH (b) in Tris buffer. (c) The conversion curves of PtIVNPs (CyPt) into Cy-COOH under incubation with 5 mM (red) or 10 mM GSH (black) in Tris buffer. P-CyPt (10 μM) was incubated with ALP (100 U/L, 37 °C) in Tris buffer for 30 min to allow complete dephosphorylation and in situ self-assembly into PtIVNPs. Then, GSH at a concentration of 5 mM or 10 mM was added and incubated for another 0, 10, 20, 30, 40, 50, and 60 min. The amounts of CyPt and Cy-COOH at each time point were quantified by HPLC.
Date are mean ± s.d. (n = 3 independent experiments). […]
Release of CDDP from PtIVNPs during disassembly process. P-CyPt (10 μM) in 5 mL Tris buffer was incubated with ALP (100 U/L) at 37 °C for 30 min to form PtIVNPs, followed by addition with 10 mM GSH at 37 °C. After 10, 20, 30, 40, 50 and 60 min, 50 mM N-ethylmaleimide was added into the solution to scavenge GSH. The reaction solution was centrifuged at 13,000 × g and the supernatant was collected. The supernatants were digested with concentrated HNO3 (65~70%) and HCl (36~38%) at 90 °C for 24 h. The solution was diluted to 5 mL 2% HNO3 and 5% HCl solution, and the concentration of Pt element was measured by ICP-OES, which was further applied to calculate the amount of CDDP (denoted as NPt) released in the solution. The percentage of Pt release at each time point was calculated according to the formula:
Pt release % = NPt/N0 × 100% (9)
Where N0 represents the total amount of Pt in the in situ formed PtIVNPs, and NPt represents the amount of Pt released from PtIVNPs following incubation with GSH.
Characterization of enzyme kinetics of P-CyPt towards ALP. Briefly, varying concentrations of P-CyPt (0.5, 1.0, 2.0, 3.0, 4.0, and 5.0 μM) in 100 μL Tris buffer were placed in a 96-well black plate. The reactions were initiated upon addition of 100 μL ALP (30 U/L) to each solution. The resulting fluorescence intensities in each well in the first five minutes were recorded on a Spark™ 10M Multimode Microplate Reader (λex/em = 680/710 nm). The amount of CyPt at each time point was determined by a standard curve under the same conditions. Kinetics values, including Km and Vmax, were determined according to the Lineweaver-Burk plot.
Determination of the sensitivity of P-CyPt towards ALP. To evaluate the sensitivity of P-CyPt towards ALP, P-CyPt (10 μM) was incubated with varying concentrations of […]
30 min, and the fluorescence spectra were then recorded on a HORIBA Jobin Yvon Fluoromax-4 fluorometer, with an excitation at 680 nm. The resulting fluorescence intensities at 710 nm were plotted to the con centrations of ALP, and a linear regression fitted from 0 -20 U/L ALP was obtained, affording the slope k. The detection limit was calculated from 3σ/k, where σ represents the standard deviation of 11 blank […]
Determination of the specificity towards ALP. The specificity towards ALP in vitro was evaluated based on fluorescence, respectively. P-CyPt (10 μM) in Tris buffer was incubated with 10 nmol/L of MMP-2, 100 U/L of γ-glutamyl transferase (GGT), 100 U/L Cathepsin B (CTB), 0.2 μg/mL of Caspase-3/7, 2.5 mg/mL of Trypsin, 100 U/L of ALP or 100 U/L ALP pretreated with its inhibitors, Na 3VO4 (100 μM) for 10 min. The […]

[3] = ALP 30 min then GSH 10 mM 10 min (time 40)
[4] = ALP 30 min then GSH 10 mM 20 min (time 50)
[5] = ALP 30 min then GSH 10 mM 30 min (time 60)
[6] = ALP 30 min then GSH 10 mM 40 min (time 70)
[7] = ALP 30 min then GSH 10 mM 50 min (time 80)
[8] = ALP 30 min then GSH 10 mM 60 min (time 90)

T1 sequence (P19111 20-506 limits assumed): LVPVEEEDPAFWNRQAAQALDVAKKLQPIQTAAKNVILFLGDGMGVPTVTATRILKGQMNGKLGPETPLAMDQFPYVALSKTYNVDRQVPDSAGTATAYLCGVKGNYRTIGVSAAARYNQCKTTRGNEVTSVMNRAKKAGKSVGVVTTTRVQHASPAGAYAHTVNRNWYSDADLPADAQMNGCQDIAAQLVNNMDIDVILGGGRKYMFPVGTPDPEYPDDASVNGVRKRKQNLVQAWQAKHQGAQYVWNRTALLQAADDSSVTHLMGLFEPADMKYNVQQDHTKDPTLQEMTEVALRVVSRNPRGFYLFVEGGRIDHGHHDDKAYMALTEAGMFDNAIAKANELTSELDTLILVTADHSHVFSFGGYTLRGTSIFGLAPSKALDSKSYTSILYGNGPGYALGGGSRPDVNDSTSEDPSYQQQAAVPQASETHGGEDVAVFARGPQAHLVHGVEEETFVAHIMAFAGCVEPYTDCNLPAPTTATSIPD

CC1(C)C(/C=C/C2=C3Oc4cc(O)c(Cl)cc4C=C3CCC2)=[N+](CCCNC(=O)[C@@H](Cc2ccccc2)NC(=O)[C@@H](Cc2ccccc2)NC(=O)CCC(=O)[O][Pt]([NH2])([NH2])([OH])([Cl])[Cl])c2ccccc21 [CyPt]
amount of compound in the P-CyPt solution (HPLC, Fig. 2h) ([1]; 0 min): 0.00
amount of compound in the P-CyPt solution (HPLC, Fig. 2h) ([1]; 5 min): 28.25
amount of compound in the P-CyPt solution (HPLC, Fig. 2h) ([1]; 10 min): 54.36
amount of compound in the P-CyPt solution (HPLC, Fig. 2h) ([1]; 15 min): 71.75
amount of compound in the P-CyPt solution (HPLC, Fig. 2h) ([1]; 20 min): 94.94
amount of compound in the P-CyPt solution (HPLC, Fig. 2h) ([1]; 30 min): 100.00
reduction of CyPt in Pt^IVNPs into Cy-COOH (HPLC) ([2]; 5 or 10 mM GSH, after 60 min): completely reduced into Cy-COOH
amount of compound in the P-CyPt solution (HPLC, Fig. 2h) [2, 3]: 82.67
amount of compound in the P-CyPt solution (HPLC, Fig. 2h) [2, 4]: 59.68
amount of compound in the P-CyPt solution (HPLC, Fig. 2h) [2, 5]: 38.50
amount of compound in the P-CyPt solution (HPLC, Fig. 2h) [2, 6]: 22.16
amount of compound in the P-CyPt solution (HPLC, Fig. 2h) [2, 7]: 9.16
amount of compound in the P-CyPt solution (HPLC, Fig. 2h) [2, 8]: 0.00

CC1(C)C(/C=C/C2=C3Oc4cc(OP(=O)(O)O)c(Cl)cc4C=C3CCC2)=[N+](CCCNC(=O)[C@@H](Cc2ccccc2)NC(=O)[C@@H](Cc2ccccc2)NC(=O)CCC(=O)[O][Pt]([NH2])([NH2])([OH])([Cl])[Cl])c2ccccc21 [P-CyPt]
conversion of P-CyPt into CyPt on incubation with ALP (HPLC) ([1]; 100 U/L ALP, Tris buffer pH 8.0, after 30 min): completely converted into CyPt
Pt release (ICP-OES, Fig. 2h) ([1]; 0 min): 0%
amount of compound in the P-CyPt solution (HPLC, Fig. 2h) ([1]; 0 min): 100.00
mean size by DLS (Fig. 2i) ([1]; 0 min): 0.00
mean size by TEM (Fig. 2i) ([1]; 0 min): 0.00
Pt release (ICP-OES, Fig. 2h) ([1]; 5 min): 0%
amount of compound in the P-CyPt solution (HPLC, Fig. 2h) ([1]; 5 min): 72.64
mean size by DLS (Fig. 2i) ([1]; 5 min): 45.78
mean size by TEM (Fig. 2i) ([1]; 5 min): 54.14
Pt release (ICP-OES, Fig. 2h) ([1]; 10 min): 0%
amount of compound in the P-CyPt solution (HPLC, Fig. 2h) ([1]; 10 min): 46.65
mean size by DLS (Fig. 2i) ([1]; 10 min): 88.09
mean size by TEM (Fig. 2i) ([1]; 10 min): 87.54
Pt release (ICP-OES, Fig. 2h) ([1]; 15 min): 0%
amount of compound in the P-CyPt solution (HPLC, Fig. 2h) ([1]; 15 min): 28.27
mean size by DLS (Fig. 2i) ([1]; 15 min): 112.94
mean size by TEM (Fig. 2i) ([1]; 15 min): 105.56
Pt release (ICP-OES, Fig. 2h) ([1]; 20 min): 0%
amount of compound in the P-CyPt solution (HPLC, Fig. 2h) ([1]; 20 min): 6.15
mean size by DLS (Fig. 2i) ([1]; 20 min): 150.95
mean size by TEM (Fig. 2i) ([1]; 20 min): 121.94
Pt release (ICP-OES, Fig. 2h) ([1]; 30 min): 0%
amount of compound in the P-CyPt solution (HPLC, Fig. 2h) ([1]; 30 min): 1.54
mean size by DLS (Fig. 2i) ([1]; 30 min): 162.05
mean size by TEM (Fig. 2i) ([1]; 30 min): 152.65
Pt release (ICP-OES, Fig. 2h) [2, 3]: 19.98%
amount of compound in the P-CyPt solution (HPLC, Fig. 2h) [2, 3]: 0
mean size by DLS (Fig. 2i) [2, 3]: 133.97
mean size by TEM (Fig. 2i) [2, 3]: 128.24
Pt release (ICP-OES, Fig. 2h) [2, 4]: 42.65%
amount of compound in the P-CyPt solution (HPLC, Fig. 2h) [2, 4]: 0
mean size by DLS (Fig. 2i) [2, 4]: 96.71
mean size by TEM (Fig. 2i) [2, 4]: 91.24
Pt release (ICP-OES, Fig. 2h) [2, 5]: 64.34%
amount of compound in the P-CyPt solution (HPLC, Fig. 2h) [2, 5]: 0
mean size by DLS (Fig. 2i) [2, 5]: 62.38
mean size by TEM (Fig. 2i) [2, 5]: 68.92
Pt release (ICP-OES, Fig. 2h) [2, 6]: 80.43%
amount of compound in the P-CyPt solution (HPLC, Fig. 2h) [2, 6]: 0
mean size by DLS (Fig. 2i) [2, 6]: 35.90
mean size by TEM (Fig. 2i) [2, 6]: 38.87
Pt release (ICP-OES, Fig. 2h) [2, 7]: 95.70%
amount of compound in the P-CyPt solution (HPLC, Fig. 2h) [2, 7]: 0
mean size by DLS (Fig. 2i) [2, 7]: 14.84
mean size by TEM (Fig. 2i) [2, 7]: 11.31
Pt release (ICP-OES, Fig. 2h) [2, 8]: 99.63%
amount of compound in the P-CyPt solution (HPLC, Fig. 2h) [2, 8]: 0
mean size by DLS (Fig. 2i) [2, 8]: 0.00
mean size by TEM (Fig. 2i) [2, 8]: 0.00
